Measured values: patent publication US9498387B2, “Absorbent article having bent sections” (UNICHARM CORPORATION, priority 2012, dated 2016)

From the text: As used herein, the term “solubility” in regard to water solubility includes cases where the sample completely dissolves in deionized water to form a homogeneous mixture, and cases where the sample is completely emulsified. As used herein, “completely” means that no mass of the sample remains in the deionized water.

Water solubility	SMILES
<0.05 g	CCCCCCCCCCCCOC(=O)CCCCCCCCCCC [2-18]
<0.05 g	CCCCCCCCCCCCCC(=O)OCCCCCCCCCCCC [2-19]
